What is called vapor or sublimation pressure is the equilibrium pressure above the liquid or solid.

For this data set the following is noted: Liquid, Ebulliometric method (Recirculating still).

Numbers after ± are expanded uncertainties.

Turning to `CC#N` [acetonitrile], the “vapor or sublimation pressure” value (295.25 K) worked out at 10 ± 0.3 kPa and the “vapor or sublimation pressure” value (295.4 K) amounted to 10 ± 0.3 kPa.

The values above are taken from the NIST ThermoML archive (doi:10.1021/acs.jced.7b00005).
